Read-outs that look alike come from different tables or passages of the source.
Tests used:
melanoma [1] = assay: Clinical trial: response of melanoma patients to DDP alone, then TAM/DDP; assay type: in vivo, human
Excerpt: A complete response was defined as the complete disappearance of all evidence of disease for at least 4 weeks. A partial response was a decrease in the mean diameter of the target lesion by 50% or more lasting at least 4 weeks. A mixed response was a decrease in the diameter of some target lesions of 50% or more while others remained stable or increased in size.
Patients were retreated every 3 weeks. […] Subsequent patients received an ondansetron-based regimen.

[2] = tested on: T-289 human melanoma cells; assay: Development of DDP resistance in T-289 cells (selection with DDP ± TAM, colony formation assay); assay type: cell-based
melanoma [3] = conditions: 203 treated melanoma patients; cited from earlier work
[4] = read-out: Steady-state plasma concentration; chronic administration, 10 mg p.o. twice a day; cited from earlier work
[5] = Plasma concentrations of TAM in patients; conditions: predicted from in vitro data
[6] = Clinical trial: toxicities with DDP or DDP/TAM treatment; conditions: in words
Excerpt: (§1) Entry requirements included histologically documented melanoma, measurable disease, signed informed consent, and no anti-tumor therapy during the previous 4 weeks. Patients were required to have normal hematologic and renal function, an Eastern Cooperative Oncology Group (ECOG) performance status of 0-2 and an estimated survival of at least 3 months. Patients with a previous history of deep venous thrombosis or pulmonary embolism were excluded.
(§2) Pre-treatment hydration consisted of 1 liter of 5% dextrose/0.45%saline containing 20 mEq of potassium chloride and 2 g magnesium sulfate administered over 4 hours. […] Patients were retreated every 3 weeks. On cycles where TAM was administered, 40 mg p.o. four doses per day were given on day 1 followed by 20 mg p.o. daily thereafter.

[7] = human, in vivo
Excerpt: as §1, §2

[8] = DDP alone: 24 patients, TAM/DDP: 20 patients (19 evaluated), after DDP alone
[9] = DDP alone: 24 patients, TAM/DDP: 20 patients, after DDP alone
[10] = of the 19 patients evaluated for TAM/DDP

CC/C(=C(\c1ccccc1)c1ccc(OCCN(C)C)cc1)c1ccccc1 [TAM, tamoxifen]
Outcome of treatment in words (melanoma [1]; TAM and DDP in patients resistant to single agent DDP): can overcome established resistance to DDP in a significant fraction of patients with malignant melanoma | Effect on development of DDP resistance ([2]; T-289, concurrent DDP and TAM, in words): can delay the development of DDP resistance | Response rate, single agent TAM (melanoma [3]): 6% | concentration [4]: ~290 nM | Plasma concentration predicted to be necessary in DDP resistant patients [5]: more than 1.0 μM | Nephrotoxicity [6]: nephrotoxicity was uncommon and unaffected by the administration of TAM | Overall toxicity / tolerability [6]: No increased toxicity was noted with the addition of TAM to single agent DDP | Nausea or vomiting ([6]; during hospitalization for ondonsetron): did not increase nausea or vomiting

Cc1nccn1CC1CCc2c(c3ccccc3n2C)C1=O (stereo not drawn) [ondonsetron]
Nausea or vomiting [7]: markedly reduced nausea and vomiting during hospitalization

N.N.[Cl][Pt][Cl] [DDP, cis-diamminedichloroplatinum (II)]
Duration of complete response (melanoma [1]; DDP alone, one patient): more than 15 months | Stable off treatment after partial response (melanoma [1]; DDP alone, one patient): ≥ 6 months | Time to progression after partial response (melanoma [1]; DDP alone, one patient): 4 months | Complete Response (%) (melanoma [1]; DDP alone: 24 patients): 4% | Progressive Disease (number of patients) (melanoma [1]; DDP alone: 24 patients (two refused DDP/TAM), TAM/DDP: 20 patients): 19 patients | Stable Disease (number of patients) (melanoma [1]; DDP alone: 24 patients, TAM/DDP: 20 patients): 2 patients | Mixed Response (number of patients) (melanoma [1]; [8]): 0 patients | Partial Response (number of patients) (melanoma [1]; [8]): 2 patients | Complete Response (number of patients) (melanoma [1]; [9]): One | Partial Response (%) (melanoma [1]; [9]): 8% | Complete Response (number of patients) (melanoma [1]; DDP alone: 24 patients, TAM/DDP: 20 patients, after DDP alone, listed as Cisplatin): 1 patients | Progressive disease while receiving single agent DDP (number of patients) (melanoma [1]; [10]): 17 patients | Stable disease while receiving single agent DDP (number of patients) (melanoma [1]; [10]): 2 patients | Time at which DDP resistance became apparent ([2]; T-289, selection): 200 days | Rate of emergence of DDP resistance, DDP alone compared with DDP and TAM ([2]; T-289, p<0.01): 2.75 fold

From US6288111A (Research Development Foundation, priority 1995, dated 2001)
